Toxic doses and inconclusive results are not listed. Cut-off read from the data, not from the text of the source: active = T/C of 150% or more; inactive = T/C below 125%.
Tested on: L1210 leukemia ip in BDF1 mice, survival T/C
Assay: NCI In Vivo Anticancer Drug Screen. Data for tumor model L1210 Leukemia (intraperitoneal) in B6D2F1 (BDF1) mice
Details: endpoint: mean survival time, higher = longer survival
Procedure, shortened: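 Tumor cells were implanted, animals were treated, and survival was followed. The result divides the treated measurement by the vehicle-control measurement.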

[1] = dose: 100.0 mg/kg/injection, schedule: Q01DX001 (ip), vehicle: Klucel (hydroxypropylcellulose) (HPC)
[2] = dose: 200.0 mg/kg/injection, schedule: Q01DX001 (ip), vehicle: Klucel (hydroxypropylcellulose) (HPC)
[3] = dose: 100.0 mg/kg/injection, schedule: Q01DX009 (ip), vehicle: saline with Tween-80
[4] = dose: 200.0 mg/kg/injection, schedule: Q01DX009 (ip), vehicle: saline with Tween-80
[5] = dose: 400.0 mg/kg/injection, schedule: Q01DX009 (ip), vehicle: saline with Tween-80
[6] = dose: 100.0 mg/kg/injection, schedule: Q01DX009 (ip), vehicle: Klucel (hydroxypropylcellulose) (HPC)
[7] = dose: 200.0 mg/kg/injection, schedule: Q01DX009 (ip), vehicle: Klucel (hydroxypropylcellulose) (HPC)
[8] = dose: 400.0 mg/kg/injection, schedule: Q01DX009 (ip), vehicle: Klucel (hydroxypropylcellulose) (HPC)
[9] = dose: 100.0 mg/kg/injection, schedule: Q04DX003 (ip), vehicle: saline with Tween-80
[10] = dose: 200.0 mg/kg/injection, schedule: Q04DX003 (ip), vehicle: saline with Tween-80
[11] = dose: 400.0 mg/kg/injection, schedule: Q04DX003 (ip), vehicle: saline with Tween-80
[12] = dose: 100.0 mg/kg/injection, schedule: Q04DX003 (ip), vehicle: Klucel (hydroxypropylcellulose) (HPC)
[13] = dose: 200.0 mg/kg/injection, schedule: Q04DX003 (ip), vehicle: Klucel (hydroxypropylcellulose) (HPC)
[14] = dose: 400.0 mg/kg/injection, schedule: Q04DX003 (ip), vehicle: Klucel (hydroxypropylcellulose) (HPC)
[15] = dose: 100.0 mg/kg/injection, schedule: Q04DX003 (ip), vehicle: saline
[16] = dose: 100.0 mg/kg/injection, schedule: Q01DX001 (ip), vehicle: saline
[17] = dose: 200.0 mg/kg/injection, schedule: Q01DX001 (ip), vehicle: saline
[18] = dose: 200.0 mg/kg/injection, schedule: Q04DX003 (ip), vehicle: saline
[19] = dose: 400.0 mg/kg/injection, schedule: Q01DX001 (ip), vehicle: saline
[20] = dose: 400.0 mg/kg/injection, schedule: Q04DX003 (ip), vehicle: saline

Measured: T/C

Nc1ccc(Cl)cc1C(=O)O
inactive: [1] 90 % of control | [2] 101 % of control | dose: 400.0 mg/kg/injection, schedule: Q01DX001 (ip), vehicle: Klucel (hydroxypropylcellulose) (HPC) 90 % of control

O=C1OC2C(O)C(CO)OC2n2c1cc(=O)[nH]c2=O (stereo unspecified)
inactive: dose: 100.0 mg/kg/injection, schedule: Q01DX005 (ip), vehicle: saline 111 % of control | dose: 200.0 mg/kg/injection, schedule: Q01DX005 (ip), vehicle: saline 104 % of control

O=C(COc1cc(Cl)c(Cl)cc1Cl)Nc1cccc2c1C(=O)c1ccccc1C2=O
inactive: dose: 75.0 mg/kg/injection, schedule: Q04DX002 (ip), vehicle: Klucel (hydroxypropylcellulose) (HPC) 98 % of control | dose: 150.0 mg/kg/injection, schedule: Q04DX002 (ip), vehicle: Klucel (hydroxypropylcellulose) (HPC) 103 % of control | dose: 300.0 mg/kg/injection, schedule: Q04DX002 (ip), vehicle: Klucel (hydroxypropylcellulose) (HPC) 103 % of control

O=C1c2ccccc2C(=O)c2c(O)ccc(O)c21
inactive: dose: 50.0 mg/kg/injection, schedule: Q01DX009 (ip), vehicle: saline 94 % of control | [3] 106 % of control | dose: 100.0 mg/kg/injection, schedule: Q01DX009 (ip), vehicle: saline 102 % of control | [4] 101 % of control | dose: 200.0 mg/kg/injection, schedule: Q01DX009 (ip), vehicle: saline 102 % of control | [5] 101 % of control

CCc1ccc(NS(=O)(=O)c2ccccc2[N+](=O)[O-])cc1
inactive: [6] 105 % of control | [7] 105 % of control | [8] 113 % of control

CCCCCCCCCCCCCCCCCCNC(=S)Nc1ccccc1
inactive: [9] 95 % of control | [10] 90 % of control | [11] 92 % of control

O=C(OC12CCCCC1CCCC2)c1ccc([N+](=O)[O-])cc1 (stereo unspecified)
inactive: [12] 96 % of control | [4] 90 % of control | [13] 101 % of control | [14] 96 % of control

CCCCCCCCCCCCNC(=O)C[n+]1ccc(C(N)=O)cc1
inactive: [15] 94 % of control

NC(=S)N/N=C/c1cc2c3c(c1)CCCN3CCC2
inactive: [9] 109 % of control | [10] 103 % of control | [11] 103 % of control

O=S(=O)(O)c1cccc2cccc(N=Nc3ccc(O)cc3)c12
inactive: dose: 100.0 mg/kg/injection, schedule: Q01DX001 (ip), vehicle: other 94 % of control | dose: 200.0 mg/kg/injection, schedule: Q01DX001 (ip), vehicle: other 103 % of control | dose: 400.0 mg/kg/injection, schedule: Q01DX001 (ip), vehicle: other 94 % of control

O=C1CSC2=NCCN12
inactive: [16] 99 % of control | [15] 93 % of control | [17] 99 % of control | [18] 98 % of control | [19] 92 % of control

CCNC(Cc1ccccc1)c1ccco1 (stereo unspecified)
inactive: dose: 50.0 mg/kg/injection, schedule: Q01DX009 (ip), vehicle: Klucel (hydroxypropylcellulose) (HPC) 109 % of control | [6] 104 % of control

CCCC(=O)OC(OC(=O)CCC)c1ccco1
inactive: [16] 92 % of control | [17] 109 % of control | [19] 109 % of control

CCCCCOc1nccc(N)n1
inactive: dose: 25.0 mg/kg/injection, schedule: Q01DX001 (ip), vehicle: saline with Tween-80 105 % of control | dose: 50.0 mg/kg/injection, schedule: Q01DX001 (ip), vehicle: saline with Tween-80 92 % of control | dose: 100.0 mg/kg/injection, schedule: Q01DX001 (ip), vehicle: saline with Tween-80 95 % of control

O=C(CCCCl)CC(O)(C(F)(F)Cl)C(F)(F)Cl
inactive: [9] 104 % of control | [10] 102 % of control

Cc1ccc(C(=O)OCc2ccc3c(c2)OCO3)cc1
inactive: dose: 222.0 mg/kg/injection, schedule: Q01DX Z (ip), vehicle: methylcellulose (MC) 97 % of control | dose: 333.0 mg/kg/injection, schedule: Q01DX Z (ip), vehicle: methylcellulose (MC) 89 % of control | dose: 500.0 mg/kg/injection, schedule: Q01DX Z (ip), vehicle: methylcellulose (MC) 89 % of control

Cc1ccc(-c2nc3ncnc(N)c3[nH]2)cc1N
inactive: [15] 89 % of control | [18] 94 % of control | [20] 94 % of control

CC1C/C(=N/NC(=O)OC(C)(C)C)CC(C)(C)C1 (stereo unspecified)
inactive: dose: 100.0 mg/kg/injection, schedule: Q01DX009 (ip), vehicle: gum acacia 96 % of control | dose: 200.0 mg/kg/injection, schedule: Q01DX009 (ip), vehicle: gum acacia 89 % of control | dose: 400.0 mg/kg/injection, schedule: Q01DX009 (ip), vehicle: gum acacia 87 % of control

CCCCCOc1cc(C(C)=O)cc(OC)c1OC(=O)c1cc([N+](=O)[O-])cc([N+](=O)[O-])c1
inactive: [3] 94 % of control | [4] 94 % of control | [5] 102 % of control

Nc1nc(N)c2cc(S(=O)(=O)c3ccc4ccccc4c3)ccc2n1
inactive: [6] 91 % of control | [12] 98 % of control | [7] 94 % of control | [13] 96 % of control | [14] 98 % of control

N#CCC(NC(=O)OCc1ccccc1)C(=O)OCc1ccccc1 (stereo unspecified)
inactive: [3] 98 % of control | [9] 98 % of control | [4] 96 % of control | [10] 93 % of control | [5] 86 % of control | [11] 89 % of control

CC(c1ccccc1)n1cncc1C(=O)N1CCOCC1 (stereo unspecified)
inactive: dose: 100.0 mg/kg/injection, schedule: Q04DX002 (ip), vehicle: Klucel (hydroxypropylcellulose) (HPC) 104 % of control | dose: 200.0 mg/kg/injection, schedule: Q04DX002 (ip), vehicle: Klucel (hydroxypropylcellulose) (HPC) 97 % of control | dose: 400.0 mg/kg/injection, schedule: Q04DX002 (ip), vehicle: Klucel (hydroxypropylcellulose) (HPC) 123 % of control

Cn1nc(C(=O)O)c2c(N)ncnc21
inactive: dose: 50.0 mg/kg/injection, schedule: Q04DX002 (ip), vehicle: saline 103 % of control | dose: 100.0 mg/kg/injection, schedule: Q04DX002 (ip), vehicle: saline 95 % of control | dose: 200.0 mg/kg/injection, schedule: Q04DX002 (ip), vehicle: saline 98 % of control

NC(=O)OCCOC(N)=O
inactive: [9] 97 % of control | [10] 95 % of control | [11] 95 % of control

Oc1c(Br)cc(Br)c2cccnc12
inactive: [6] 100 % of control | [15] 98 % of control | [7] 91 % of control | [18] 102 % of control | [8] 86 % of control | [20] 96 % of control

O=C(Nc1ccccc1C(F)(F)F)OCCOc1ccc(-c2ccccc2)cc1
inactive: [6] 93 % of control | [7] 91 % of control | [8] 91 % of control

C=CCOc1ccnc(N)n1
inactive: [3] 90 % of control | [9] 105 % of control | [4] 95 % of control | [10] 100 % of control | [5] 100 % of control | [11] 102 % of control

CC1CCCC(CN=Cc2ccc(O)cc2O)[N-]1.CC1CCCC(CN=Cc2ccc(O)cc2O)[N-]1.[Ni+2] (stereo unspecified)
inactive: dose: 25.0 mg/kg/injection, schedule: Q04DX003 (ip), vehicle: saline with Tween-80 101 % of control | dose: 50.0 mg/kg/injection, schedule: Q04DX003 (ip), vehicle: saline with Tween-80 103 % of control | [9] 98 % of control

Cc1cc2c3ccc(C)[n+](C)c3ccc2n1C
inactive: dose: 1.25 mg/kg/injection, schedule: Q01DX009 (ip), vehicle: saline 109 % of control | dose: 2.5 mg/kg/injection, schedule: Q01DX009 (ip), vehicle: saline 115 % of control | dose: 2.5 mg/kg/injection, schedule: Q04DX003 (ip), vehicle: saline 112 % of control | dose: 5.0 mg/kg/injection, schedule: Q01DX009 (ip), vehicle: saline 115 % of control | dose: 5.0 mg/kg/injection, schedule: Q04DX003 (ip), vehicle: saline 110 % of control | dose: 9.5 mg/kg/injection, schedule: Q01DX001 (ip), vehicle: saline 106 % of control | dose: 10.0 mg/kg/injection, schedule: Q04DX003 (ip), vehicle: saline 112 % of control | dose: 20.0 mg/kg/injection, schedule: Q04DX003 (ip), vehicle: saline 103 % of control

CCCCCCCCSCCCCCCCCCCCSCCCCCCCC
inactive: [1] 102 % of control | [2] 92 % of control

Source: PubChem BioAssay AID248 (DTP/NCI, 2004)
